The IC50 is the point on the concentration scale where inhibition reaches its midpoint.

Where a name gives a salt, the structure may show the parent alone.

In US10464947B2 (Incyte Corporation, priority 2013, dated 2019) one finds IC50 data, which are given here for 28 molecules.

The first test concerns KMS.12.BM cells. The test can be described thus: KMS.12.BM Cell Viability Assay (Example B1). It counts as cell-based, human. As to conditions: 3 days, Cell Titer-GLO, read-out: KMS cellular IC50. The method, then:
KMS.12.BM cell line (human myeloma) was purchased from JCRB (Osaka, Japan) and maintained in RPMI with 10% FBS culture medium. To measure the cytotoxic activity of the compounds through ATP quantitation, the KMS.12.BM cells are plated in the RPMI culture medium at 5000 cells/well/per 100 μL into a 96-well polystyrene clear black tissue culture plate (Greiner-bio-one through VWR, NJ), in the presence or absence of a concentration range of test compounds. After 3 days, […] Cell Titer-GLO Luminescent (Promega, Madison, Wis.) cell culture agent is added to each well for 10 min. at room temperature to stabilize the luminescent signal. This determines the number of viable cells in culture based on quantitation of the ATP present, which signals the presence of metabolically active cells.
On the technique in general: ATP-based viability assays read luminescence as a measure of living cells.
`Cc1noc(C)c1-c1ccc2[nH]c(=O)n3c2c1OCC3C1CCCO1` (single isomer, unassigned) [Example 18B, 7-(3,5-Dimethylisoxazol-4-yl)-4-(tetrahydrofuran-2-yl)-4,5-dihydroimidazo[1,5,4-de][1,4]benzoxazin-2(1H)-one]: the IC50 was below 1000 nM.
Turning to `Cc1noc(C)c1-c1ccc2nc(NC(C)CO)n3c2c1OCC3c1ccccc1` (single isomer, unassigned) [Example 31, 2-{[7-(3,5-Dimethylisoxazol-4-yl)-4-phenyl-4,5-dihydroimidazo[1,5,4-de][1,4]benzoxazin-2-yl]amino}propan-1-ol], the IC50 was below 1000 nM.

The same test, now with this note: Homo sapiens, 72 h, 3 days, Cell Titer-GLO, read-out: KMS cellular IC50.
Turning to `Cc1noc(C)c1-c1ccc2nc(N3CC[C@@H](NS(=O)(=O)C4CC4)C3)n3c2c1OC[C@@H]3c1ccccn1` [Example 218, N-{(3R)-1-[(4S)-7-(3,5-dimethylisoxazol-4-yl)-4-pyridin-2-yl-4,5-dihydroimidazo[1,5,4-de][1,4]benzoxazin-2-yl]pyrrolidin-3-yl}cyclopropanesulfonamide], the IC50 is below 1000 nM.
The same measure, in the same setting: to `Cc1noc(C)c1-c1ccc2nc(N3CCN(CC(=O)N4CCCC4)CC3)n3c2c1OC[C@@H]3c1ccccn1` [Example 228, (4S)-7-(3,5-dimethylisoxazol-4-yl)-2-[4-(2-oxo-2-pyrrolidin-1-ylethyl)piperazin-1-yl]-4-pyridin-2-yl-4,5-dihydroimidazo[1,5,4-de][1,4]benzoxazine] belongs below 1000 nM; to `Cc1noc(C)c1-c1cc(-c2ccccc2)c2[nH]c(=O)n3c2c1OCC3c1ccccc1` (stereo not shown) [Example 43, 7-(3,5-Dimethylisoxazol-4-yl)-4,9-diphenyl-4,5-dihydroimidazo[1,5,4-de][1,4]benzoxazin-2(1H)-one], below 1000 nM.
Same read-out and setting: the result for `CCC(=O)N1CCCN(c2nc3ccc(-c4c(C)noc4C)c4c3n2[C@@H](c2ccccn2)CO4)CC1` [Example 246, (4S)-7-(3,5-dimethylisoxazol-4-yl)-2-(4-propionyl-1,4-diazepan-1-yl)-4-pyridin-2-yl-4,5-dihydroimidazo[1,5,4-de][1,4]benzoxazine] reads below 1000 nM; that for `Cc1noc(C)c1-c1ccc2nc([C@@H](O)CO)n3c2c1OC[C@@H]3c1ccccn1` [Example 89, (1R)-1-[(4S)-7-(3,5-Dimethylisoxazol-4-yl)-4-pyridin-2-yl-4,5-dihydroimidazo[1,5,4-de][1,4]benzoxazin-2-yl]ethane-1,2-diol], below 1000 nM.
With `Cc1noc(C)c1-c1ccc2nc(N3CC[C@@H](NC(=O)C4CC4)C3)n3c2c1OC[C@@H]3c1ccccn1` [Example 206, N-{(3R)-1-[(4S)-7-(3,5-dimethylisoxazol-4-yl)-4-pyridin-2-yl-4,5-dihydroimidazo[1,5,4-de][1,4]benzoxazin-2-yl]pyrrolidin-3-yl}cyclopropanecarboxamide], the IC50 is below 1000 nM.
The same measure, in the same setting: the result for `Cc1noc(C)c1-c1ccc2nc(N3CCC(O)CC3)n3c2c1OCC3c1ccccc1` (stereo not shown) [Example 57, 1-[7-(3,5-Dimethylisoxazol-4-yl)-4-phenyl-4,5-dihydroimidazo[1,5,4-de][1,4]benzoxazin-2-yl]piperidin-4-ol] reads below 1000 nM; that for `Cc1noc(C)c1-c1ccc2nc(N3CC[C@@H](NS(C)(=O)=O)C3)n3c2c1OC[C@@H]3c1ccccn1` [Example 207, N-{(3R)-1-[(4S)-7-(3,5-dimethylisoxazol-4-yl)-4-pyridin-2-yl-4,5-dihydroimidazo[1,5,4-de][1,4]benzoxazin-2-yl]pyrrolidin-3-yl}methanesulfonamide], below 1000 nM.
`Cc1noc(C)c1-c1cc(-c2cn[nH]c2)c2[nH]c(=O)n3c2c1OCC3c1ccccn1` (stereo not shown) [Example 256, 7-(3,5-dimethylisoxazol-4-yl)-9-(1H-pyrazol-4-yl)-4-pyridin-2-yl-4,5-dihydroimidazo[1,5,4-de][1,4]benzoxazin-2(1H)-one]: the half-maximal inhibitory concentration (IC50) is below 1000 nM.
With `CC(=O)NC1CN(c2nc3ccc(-c4c(C)noc4C)c4c3n2[C@@H](c2ccccn2)CO4)C1` [Example 231, N-{1-[(4S)-7-(3,5-dimethylisoxazol-4-yl)-4-pyridin-2-yl-4,5-dihydroimidazo[1,5,4-de][1,4]benzoxazin-2-yl]azetidin-3-yl}acetamide], the IC50 is below 1000 nM.
`COc1cccc(C2COc3c(-c4c(C)noc4C)ccc4[nH]c(=O)n2c34)c1` (stereo not shown) [Example 6, 7-(3,5-Dimethylisoxazol-4-yl)-4-(3-methoxyphenyl)-4,5-dihydroimidazo[1,5,4-de][1,4]benzoxazin-2(1H)-one]: the IC50 was below 1000 nM.
For `Cc1noc(C)c1-c1ccc2nc(N3CCNCC3)n3c2c1OC[C@@H]3c1ccccn1` [Example 150, (4S)-7-(3,5-Dimethylisoxazol-4-yl)-2-piperazin-1-yl-4-pyridin-2-yl-4,5-dihydroimidazo[1,5,4-de][1,4]benzoxazine trihydrochloride], the IC50 is below 1000 nM.
For `COn1c(=O)n2c3c(c(-c4c(C)noc4C)ccc31)CCC2c1ccccn1` (stereo not shown) [Example 122, 7-(3,5-Dimethylisoxazol-4-yl)-1-methoxy-4-pyridin-2-yl-5,6-dihydro-4H-imidazo[4,5,1-ij]quinolin-2(1H)-one trifluoroacetate], the IC50 was below 1000 nM.
As to `Cc1noc(C)c1-c1ccc2nc(C3CCN(C(=O)C4CC4)CC3)n3c2c1OC[C@@H]3c1ccccn1` [Example 111, (4S)-2-[1-(cyclopropylcarbonyl)piperidin-4-yl]-7-(3,5-dimethylisoxazol-4-yl)-4-pyridin-2-yl-4,5-dihydroimidazo[1,5,4-de][1,4]benzoxazine], the IC50 was below 1000 nM.
Still for that read-out and setting: to `Cc1noc(C)c1-c1ccc2nc(N3CCN(C(=O)OC(C)(C)C)CC3)n3c2c1OCC3c1ccccc1` (stereo not shown) [Example 60] belongs below 1000 nM; to `Cc1noc(C)c1-c1ccc2nc(C(C)O)n3c2c1OC[C@@H]3c1ccccn1` (stereo partly drawn) [Example 90, 1-[(4S)-7-(3,5-Dimethylisoxazol-4-yl)-4-pyridin-2-yl-4,5-dihydroimidazo[1,5,4-de][1,4]benzoxazin-2-yl]ethanol], below 1000 nM; to `COCC(=O)NC1CCN(c2nc3ccc(-c4c(C)noc4C)c4c3n2[C@@H](c2ccccn2)CO4)CC1` [Example 241, N-{1-[(4S)-7-(3,5-dimethylisoxazol-4-yl)-4-pyridin-2-yl-4,5-dihydroimidazo[1,5,4-de][1,4]benzoxazin-2-yl]piperidin-4-yl}-2-methoxyacetamide], below 1000 nM.
Consider `Cc1noc(C)c1-c1ccc2[nH]c(=O)n3c2c1CCC3c1ccccn1` (stereo not shown) [Example 123, 7-(3,5-Dimethylisoxazol-4-yl)-4-pyridin-2-yl-5,6-dihydro-4H-imidazo[4,5,1-ij]quinolin-2(1H)-one trifluoroacetate], for which the IC50 is below 1000 nM.
On the same count and under the same terms, to `Cc1noc(C)c1-c1ccc2nc(N3CCCC(O)C3)n3c2c1OCC3c1ccccc1` (stereo not shown) [Example 58, 1-[7-(3,5-Dimethylisoxazol-4-yl)-4-phenyl-4,5-dihydroimidazo[1,5,4-de][1,4]benzoxazin-2-yl]piperidin-3-ol] belongs below 1000 nM; to `Cc1noc(C)c1-c1ccc2nc(N3CC[C@@H](NS(=O)(=O)C(C)C)C3)n3c2c1OC[C@@H]3c1ccccn1` [Example 217, N-{(3R)-1-[(4S)-7-(3,5-dimethylisoxazol-4-yl)-4-pyridin-2-yl-4,5-dihydroimidazo[1,5,4-de][1,4]benzoxazin-2-yl]pyrrolidin-3-yl}propane-2-sulfonamide], below 1000 nM.
Regarding `COCC(=O)N[C@@H]1CCN(c2nc3ccc(-c4c(C)noc4C)c4c3n2[C@@H](c2ccccn2)CO4)C1` [Example 205, N-{(3R)-1-[(4S)-7-(3,5-dimethylisoxazol-4-yl)-4-pyridin-2-yl-4,5-dihydroimidazo[1,5,4-de][1,4]benzoxazin-2-yl]pyrrolidin-3-yl}-2-methoxyacetamide], the IC50 was below 1000 nM.
On the same count and under the same terms, to `Cc1noc(C)c1-c1ccc2nc(N3CCN(C)C(=O)C3)n3c2c1OC[C@@H]3c1ccccn1` [Example 166, 4-[(4S)-7-(3,5-dimethylisoxazol-4-yl)-4-pyridin-2-yl-4,5-dihydroimidazo[1,5,4-de][1,4]benzoxazin-2-yl]-1-methylpiperazin-2-one] belongs below 1000 nM.
As for `CCCS(=O)(=O)N[C@@H]1CCN(c2nc3ccc(-c4c(C)noc4C)c4c3n2[C@@H](c2ccccn2)CO4)C1` [Example 215, N-{(3R)-1-[(4S)-7-(3,5-dimethylisoxazol-4-yl)-4-pyridin-2-yl-4,5-dihydroimidazo[1,5,4-de][1,4]benzoxazin-2-yl]pyrrolidin-3-yl}propane-1-sulfonamide], the IC50 is below 1000 nM.
On to `COC(=O)c1ncccc1C1COc2c(-c3c(C)noc3C)ccc3[nH]c(=O)n1c23` (racemic) [Example 132, Methyl 3-[7-(3,5-dimethylisoxazol-4-yl)-2-oxo-1,2,4,5-tetrahydroimidazo[1,5,4-de][1,4]benzoxazin-4-yl]pyridine-2-carboxylate], for which the IC50 is below 1000 nM.
Still for that read-out and setting: to `Cc1noc(C)c1-c1ccc2nc(C(=O)N(C)C)n3c2c1OC[C@@H]3c1ccccn1` [Example 91, (4S)-7-(3,5-Dimethylisoxazol-4-yl)-N,N-dimethyl-4-pyridin-2-yl-4,5-dihydroimidazo[1,5,4-de][1,4]benzoxazine-2-carboxamide] belongs below 1000 nM.

Staying with this test, now noted: Homo sapiens, KMS-12-BM, 72 h, 3 days, Cell Titer-GLO, read-out: KMS cellular IC50.
For `Cc1noc(C)c1-c1ccc2[nH]c(=O)n3c2c1OCC3C1CCCCN1` (single isomer, unassigned) [Example 63A, 7-(3,5-Dimethylisoxazol-4-yl)-4-piperidin-2-yl-4,5-dihydroimidazo[1,5,4-de][1,4]benzoxazin-2(1H)-one 2,2,2-trifluoroacetate], the IC50 was in the range of 1000 to 10000 nM.
